Test results reported in ChEMBL document CHEMBL5532682, “Recent advances of tryptanthrin and its derivatives as potential anticancer agents” (RSC Med Chem, 2024).
One block for each compound: values may come before it.

How the values were obtained:
[1] = tested on: MCF7; test: Antiproliferative activity against human MCF7 cells; type: functional, cell-based
[2] = tested on: NCI/ADR-RES; test: Antiproliferative activity against human MCF7ADR cells; type: functional, cell-based
[3] = Antiproliferative activity against mouse MC3T3-E1 cells; type: toxicity, cell-based
[4] = tested on: PC-3; test: Antiproliferative activity against human PC-3 cells incubated by 48 hrs by MTT assay; type: functional, cell-based; conditions: PC-3, 48 h
[5] = tested on: HepG2; test: Antiproliferative activity against human HepG2 cells incubated by 48 hrs by MTT assay; type: functional, cell-based; conditions: HepG2, 48 h
[6] = tested on: K562; test: Antiproliferative activity against human K562 cells incubated by 48 hrs by MTT assay; type: functional, cell-based; conditions: K562, 48 h
[7] = tested on: A549; test: Antiproliferative activity against human A549 cells incubated by 48 hrs by MTT assay; type: functional, cell-based; conditions: A549, 48 h
[8] = tested on: A549; test: Antiproliferative activity against human A549 cells; type: functional, cell-based
[9] = tested on: Hep 3B2; test: Anticancer activity against human Hep3B cells measured after 48 hrs; type: functional, cell-based
[10] = tested on: A498; test: Cytotoxicity against human A498 cells measured after 3 days by MTT assay; type: functional, cell-based; conditions: A498, 72 h
[11] = tested on: HeLa; test: Antiproliferative activity against human HeLa cells assessed as cell growth inhibition; type: functional, cell-based
[12] = tested on: MCF7; test: Cytotoxicity against human MCF7 cells measured after 3 days by MTT assay; type: functional, cell-based; conditions: MCF7, 72 h
[13] = tested on: SK-OV-3; test: Cytotoxicity against human SK-OV-3 cells measured after 3 days by MTT assay; type: functional, cell-based; conditions: SK-OV-3, 72 h
[14] = tested on: A549; test: Antiproliferative activity against human A549 cells assessed as cell growth inhibition; type: functional, cell-based
[15] = tested on: Hep 3B2; test: Antiproliferative activity against human Hep3B cells measured after 48 hrs by MTT assay; type: functional, cell-based
[16] = tested on: T-24; test: Antiproliferative activity against human T24 cells assessed as inhibition of cell growth; type: functional, cell-based
[17] = Antiproliferative activity against human HL7702 cells assessed as inhibition of cell growth; type: toxicity, cell-based; conditions: HL7702 (L02) cells
[18] = tested on: HepG2; test: Antiproliferative activity against human HepG2 cells assessed as inhibition of cell growth; type: functional, cell-based
[19] = tested on: SK-OV-3; test: Antiproliferative activity against human SK-OV-3 cells assessed as inhibition of cell growth; type: functional, cell-based
[20] = tested on: A549/CDDP; test: Antiproliferative activity against human A549/DDP cells assessed as inhibition of cell viability; type: functional, cell-based
[21] = tested on: A549; test: Antiproliferative activity against human A549 cells assessed as inhibition of cell viability; type: functional, cell-based
[22] = Antiproliferative activity against human HL7702 cells assessed as inhibition of cell viability; type: toxicity, cell-based; conditions: HL7702 (L02) cells
[23] = tested on: U-251; test: Growth inhibition of human U-251 cells assessed as reduction in cell viability; type: functional
[24] = tested on: SK-OV-3; test: Growth inhibition of human SK-OV-3 cells assessed as reduction in cell viability; type: functional
[25] = tested on: DU-145; test: Growth inhibition of human DU-145 cells assessed as reduction in cell viability; type: functional
[26] = tested on: NCI-H522; test: Growth inhibition of human NCI-H522 cells assessed as reduction in cell viability; type: functional
[27] = tested on: SW-620; test: Growth inhibition of human SW620 cells assessed as reduction in cell viability; type: functional
[28] = tested on: NCI/ADR-RES; test: Growth inhibition of human MCF7ADR cells assessed as reduction in cell viability; type: functional
[29] = tested on: A498; test: Growth inhibition of human A498 cells assessed as reduction in cell viability; type: functional
[30] = tested on: M14; test: Growth inhibition of human M14 cells assessed as reduction in cell viability; type: functional
[31] = tested on: HeLa; test: Antiproliferative activity against human HeLa cells; type: functional, cell-based
[32] = Antiproliferative activity against human LX-2 cells; type: toxicity, cell-based
[33] = tested on: B16-F10; test: Antiproliferative activity against mouse B16-F10 cells; type: functional, cell-based
[34] = tested on: K562; test: Antiproliferative activity against human K562 cells incubated for 48 hrs; type: functional, cell-based; conditions: K562, 48 h
[35] = tested on: HeLa; test: Antiproliferative activity against human HeLa cells incubated for 48 hrs; type: functional, cell-based
[36] = tested on: CT26; test: Antiproliferative activity against mouse CT26 cells incubated for 48 hrs; type: functional, cell-based; conditions: CT26, 48 h
[37] = tested on: MCF7; test: Antiproliferative activity against human MCF7 cells assessed as inhibition of cell growth; type: functional, cell-based
[38] = tested on: HeLa; test: Antiproliferative activity against human HeLa cells assessed as inhibition of cell growth; type: functional, cell-based
[39] = Cytotoxicity against human HEK293 cells assessed as inhibition of cell growth; type: toxicity, cell-based
[40] = tested on: A549; test: Antiproliferative activity against human A549 cells assessed as inhibition of cell growth; type: functional, cell-based
[41] = tested on: MDA-MB-231; test: Antiproliferative activity against human MDA-MB-231 cells; type: functional, cell-based
[42] = tested on: HT-29; test: Antiproliferative activity against human HT-29 cells; type: functional, cell-based
[43] = Cytotoxicity activity against human HDF cells; type: toxicity, cell-based; conditions: HDF cells (NHDF)
[44] = tested on: PANC-1; test: Antiproliferative activity against human PANC-1 cells; type: functional, cell-based

SMILES: c1ccc(CNCc2ccccn2)nc1
IC50 [20]: > 100 µM
IC50 [21]: > 100 µM
IC50 [22]: > 100 µM

SMILES: O=c1c2ccccc2nc2n1-c1ccccc1/C2=N\OCCN1CCCC1
GI50 [25]: 2 µM

SMILES: N/N=C1/c2cc(F)ccc2-n2c1nc1ccccc1c2=O
IC50 [10]: 1.26 µM
IC50 [12]: 1.4 µM
IC50 [13]: 8.51 µM

SMILES: C=C[C@@H]1[C@@]2(c3ccccc3)[C@H]3CCCN3[C@@]3(c4ccccc4-n4c3nc3ccccc3c4=O)[C@@]12c1ccccc1
IC50 [34]: > 50 µM
IC50 [35]: > 50 µM
IC50 [36]: 10 µM

SMILES: O=C1C2C=CC=CC2=NC2/C(=N\Nc3nc(-c4ccc(Br)cc4)cs3)c3ccccc3N12 (stereo unspecified)
IC50 [37]: 12.7 µM
IC50 [38]: 19.3 µM
IC50 [39]: 73.3 µM
IC50 [40]: 16.9 µM

SMILES: Cc1nn(Cl)c2c1[C@@]1(C(C#N)=CO2)c2cc(-c3cccc(Cl)c3)ccc2-n2c1nc1ccccc1c2=O
IC50 [41]: 92.8 µM
IC50 [42]: > 100 µM
IC50 [43]: > 100 µM
IC50 [44]: 60.6 µM

SMILES: Cc1nn(Br)c2c1[C@@]1(C(C#N)=CO2)c2cc(-c3ccccc3)ccc2-n2c1nc1ccccc1c2=O
IC50 [41]: 65.4 µM
IC50 [42]: > 100 µM
IC50 [43]: > 100 µM
IC50 [44]: 85.3 µM

SMILES: Cc1nn(Cl)c2c1[C@@]1(C(C#N)=C(N)O2)c2cc(-c3ccccc3)ccc2-n2c1nc1ccccc1c2=O
IC50 [41]: 62.8 µM
IC50 [42]: > 100 µM
IC50 [43]: > 100 µM
IC50 [44]: > 100 µM

Second part, led by results:

IC50 [1]: 82.1 µM
SMILES: O=c1c2ccccc2nc2n1-c1ccccc1/C2=N\O
IC50 [2]: 75.3 µM

IC50 [4]: 10.6 µM
IC50 [5]: 1.97 µM
IC50 [6]: 2.66 µM
IC50 [7]: 2.36 µM
IC50 [8]: 10.9 µM
IC50 [9]: 4.1 µM
SMILES: O=C1c2cc(F)ccc2-n2c1nc1ccccc1c2=O
IC50 [3]: 97 µM

IC50 [11]: > 150 µM
IC50 [14]: > 150 µM
IC50 [18]: 88.6 µM
IC50 [19]: 79.1 µM
SMILES: O=C1c2cc(I)ccc2-n2c1nc1ccccc1c2=O
IC50 [10]: 1.86 µM
IC50 [12]: 1.5 µM
IC50 [13]: 0.65 µM
IC50 [15]: 2.4 µM
IC50 [16]: 85.2 µM
IC50 [17]: 94.1 µM

GI50 [23]: 15 µM
GI50 [24]: 30 µM
GI50 [25]: 50 µM
GI50 [26]: 50 µM
GI50 [27]: 8 µM
SMILES: O=C1c2cc3ccccc3cc2-n2c1nc1ccccc1c2=O
GI50 [28]: 15 µM
GI50 [29]: 60 µM
GI50 [30]: 40 µM

IC50 [4]: 8.48 µM
IC50 [5]: 2.95 µM
IC50 [6]: 3.67 µM
IC50 [7]: 4.21 µM
IC50 [8]: 22.6 µM
SMILES: O=C1c2cc(Cl)ccc2-n2c1nc1ccccc1c2=O
IC50 [3]: > 100 µM
IC50 [15]: 3.7 µM

IC50 [4]: 9.7 µM
IC50 [5]: 5.63 µM
IC50 [6]: 6.77 µM
IC50 [7]: 2.34 µM
IC50 [9]: > 20 µM
SMILES: O=C1c2ccccc2-n2c1nc1ccc(F)cc1c2=O

IC50 [9]: 6.5 µM
SMILES: Cc1ccc2c(c1)C(=O)c1nc3ccccc3c(=O)n1-2

GI50 [23]: > 100 µM
GI50 [24]: 5 µM
GI50 [25]: 0.15 µM
GI50 [26]: 0.7 µM
IC50 [4]: 11.8 µM
GI50 [27]: 4 µM
IC50 [31]: 0.34 µM
IC50 [5]: 7.89 µM
IC50 [6]: 8.05 µM
IC50 [7]: 6.88 µM
IC50 [33]: 0.49 µM
IC50 [9]: 1.4 µM
SMILES: O=C1c2cc([N+](=O)[O-])ccc2-n2c1nc1ccccc1c2=O
GI50 [28]: 0.7 µM
IC50 [32]: 0.83 µM
GI50 [29]: 3 µM
GI50 [30]: 0.8 µM

GI50 [24]: 6 µM
GI50 [25]: 10 µM
GI50 [27]: 10 µM
SMILES: C=C[C@]1(O)c2ccccc2-n2c1nc1ccccc1c2=O
GI50 [28]: 20 µM
GI50 [30]: 8 µM

GI50 [23]: > 100 µM
GI50 [24]: > 100 µM
GI50 [25]: > 100 µM
GI50 [26]: > 100 µM
GI50 [27]: > 100 µM
SMILES: C[C@]1(O)c2ccccc2-n2c1nc1ccccc1c2=O
GI50 [28]: > 100 µM
GI50 [29]: > 100 µM
GI50 [30]: > 100 µM

IC50 [9]: 5.8 µM
SMILES: O=C1c2cc(Br)ccc2-n2c1nc1ccc(F)cc1c2=O
